Test results from patent publication US10765638B2, “Particle formulation with polycation complex” (Yale University, priority 2017, dated 2020).

Columns and labels:
MET, PDGFR and FGFR RTKs = assay: Western blot of MET, PDGFR and FGFR phosphorylation and levels in glioma cells; type: cell-based
Description: In this study, the D54, SKMG3, U251, T98G and 42-MG glioma cell lines were used. The source of D54, SKMG3 and U251 cells has been described previously (Contessa at al., Clin Cancer Res., 16:3205-14 (2010), Lopez et al., Int J Radiat Oncol Biol Phys., 69:214-20 (2007)). The 42-MG and T98G cells were provided by Todd Waldman (Georgetown University) and Dr. Ranjit Bindra (Yale University), respectively. The cells were cultured in DMEM/F12 (D54 and T98G), DMEM (42-MG and U251) or RPMI 1640 (SKMG3)+10% FBS supplemented with penicillin and streptomycin (Gibco, Life Technologies, Grand Island, N.Y., US) in a humidified incubator with 5% CO2, and they were kept in culture no more than 6 months after resuscitation from the original stocks. […] Mycoplasma cell culture contamination was routinely checked and ruled out using a biochemical test (MycoAlert Mycoplasma Detection Kit from Lonza, Rockland, Me. USA). Tunicamycin was purchased from Calbiochem/EMD-millipore (Burlington, Mass., USA). Cetuximab and Erlotinib were purchased at Selleck Chemicals LLC (Houston, Tex., USA). Luciferin was supplied by Promega (Madison, Wis. USA). For in vitro experiments, radiation (XRT) was administered at room temperature using a Precision X-ray 320-kV orthovoltage unit at a dose rate of 2 Gy/45 seconds (PXI X-Ray Systems) with 2 mm aluminum filter. For in vivo studies, radiation was administered at room temperature using a Precision X-ray 250-kV orthovoltage unit at a dose rate of 6.42 Gy/min (PXI X-Ray Systems) with 2 mm aluminum filter. Quality Assurance for both irradiators was performed monthly using a P.T.W. 0.3 cm^3 Ionization Chamber calibrated to NIST standards and quarterly dosimetry using thermoluminescent dosimeter (TLD)-based or ferrous sulfate-based dosimeters.

[1] = test system: D54, SKMG3, T98G or U251 cells; assay: Glioma cell proliferation (CellTiter 96), NGI-1 alone or with cytotoxic chemotherapy; type: cell-based
Description: (§1) Radiation (XRT) doses of either 0, 2, 4, or 6 Gy were delivered with a Precision X-ray 320-kV orthovoltage unit at a dose rate of 2 Gy/45 seconds (PXI X-Ray Systems). Twenty-four hours following XRT cells were washed, trypsinized, and re-plated in triplicate wells to determine clonogenic survival. […] Growth rates were determined by CellTiter 96 Non-Radioactive Cell Proliferation Assay (Promega; Madison, Wis., USA) according to the manufacturer's directions. For each experiment one thousand cells were seeded in triplicate wells in 96-wells plates. The following day, cell cultures were treated with NGI-1 (1 μM), Temozolomide (TMZ, 10 μM), Etoposide (VP-16, 0.1 μM) or combinations for 5 days. Absorbance at 540 nm was measured using the spectrophotometric reading (BioTek Synergy 2; Winooski, Vt. USA).

D54 cells = assay: Phospho-γH2AX foci formation after radiation; type: cell-based
Description: (§2) To determine histone H2AX phosphorylation (γH2AX), cells were cultured on glass cover slips and pre-treated with either vehicle or NGI-1 for 48 hours followed by radiation treatment. Samples were fixed with 4% neutral-buffered formaldehyde, washed (0.1% triton in PBS for 30 minutes) and incubated for 1 hour with protein-blocking solution (PBS containing 10% normal goat-horse serum; Sigma-Aldrich, Saint Louis, Mich., US). Next, the slides were incubated with primary anti-phospho-histone γH2AX S139 (1:500, Millipore-Upstate, Billerica, Mass., US) followed by incubation with secondary antibody Alexa Fluor 555-conjugated goat anti-mouse IgG (1:750, Molecular probes/Invitrogen, Carlsbad, Calif., US), for 1 hour at room temperature. Nuclei were stained using DAPI containing vectashield mounting solution (Vector Labs). Confocal cellular images were captured with an inverted Zeiss LSM 510 Pascal laser confocal microscope (C. Zeiss, Jenna, Germany), using a 63/1.4 plan-apochromat objective. Five randomly selected fields s per slide were analyzed. Cells were counted using the ImageJ program, public domain Java image processing software.

T98G cells = assay: Phospho-γH2AX foci formation after radiation; type: cell-based; details: 2 hours after 4 Gy, 10 μM NGI-1
Description: as §2

U251 cells = assay: Phospho-γH2AX foci formation after radiation; type: cell-based; details: 2 hours after 4 Gy, 10 μM NGI-1
Description: as §2

SKMG3 cells = assay: Phospho-γH2AX foci formation after radiation; type: cell-based, human; details: 2 hours after 4 Gy, 10 μM NGI-1
Description: as §2

CD8-EGFR = assay: Western blot of CD8-EGFR phosphorylation in SKMG3-CD8-EGFR cells; type: cell-based, human; details: SKMG3 cells with stable expression of the CD8-EGFR
Description: (§3) The CD8 cDNA was a gift from Paula Kavathas (Yale University). The CD8-EGFR was constructed according to a strategy that generated a constitutively active IGF-1R (24). The extracellular domain of CD8 was PCR amplified with a 5′ XbaI and 3′ SalI restriction site and cloned in-frame with the intracellular kinase domain of EGFR using the pDCB5-EGFR plasmid. SKMG3-CD8-EGFR cells were generated by Lipofectamine (Life Technologies) transfection of the plasmid followed by selection with 500 μg/ml G418.

SKMG3-CD8-EGFR cells = assay: Radiation clonogenic survival assay; type: cell-based, human; details: 10 μM NGI-1
Description: as §1
as §3, with “G418. Expression of CD8-EGFR was validated by western blot analysis of the wild type and CD8-EGFR.” for “G418.”

HCC827-GR cells = assay: Apoptosis by Annexin V flow cytometry; type: cell-based; details: NGI-1 treatment alone
Description: First-line analysis was performed with Flow Jo software. Approximately 50,000 cells were analyzed per experiment, and the mean value was obtained from 3 independent assays.

[2] = test system: non-transformed cell lines, primary human dermal fibroblasts, and neural progenitor cells; details: Lopez-Sambrooks 2016, Hafirassou 2017, Puschnik 2017; cited from earlier work

In the case of Cc1cnc(NC(=O)c2cc(S(=O)(=O)N(C)C)ccc2N2CCCC2)s1 [NGI-1, 5-(dimethylsulfamoyl)-N-(5-methyl-1,3-thiazol-2-yl)-2-(pyrrolidin-1-yl)benzamide], the “phosphorylation of PDGFR” value (MET, PDGFR and FGFR RTKs; 42-MG, SKMG3, and T98G cells) is reported as “uniformly reduced”, the “phosphorylation of MET” value (MET, PDGFR and FGFR RTKs; D54, SKMG3, U251, and T98G cells) is reported as “uniformly reduced phosphorylation” and the FGFR1 levels (MET, PDGFR and FGFR RTKs; glioma cell lines) is reported as “increased”. The FGFR1 receptor phosphorylation (MET, PDGFR and FGFR RTKs; glioma cell lines) was “not accompanied by an increase in receptor phosphorylation”, the “glioma cell line proliferation, dose response” value ([1]; D54, SKMG3, U251 and T98G, 5 days of drug exposure) was “sensitive” and the “proliferation, NGI-1 combined with TMZ or VP-16” value ([1]; D54 and SKMG3, NGI-1 1 μM with TMZ 10 μM or VP-16 0.1 μM, 5 days, not synergistic) was “further reduced glioma cell proliferation”. The “enhancement of the anti-proliferative effects of TMZ or VP-16” value ([1]; T98G or U251 cells, NGI-1 1 μM, 5 days) was “did not enhance”, the “increase of phospho-γH2AX foci formation, time course” value (D54 cells; 4 Gy + 10 μM NGI-1, radiation alone 6.4-fold) was 8.6 fold and the “increase of phospho-γH2AX foci formation compared to radiation alone (factor)” value (D54 cells; 2 hours after 4 Gy, 10 μM NGI-1) was 1.3. The “enhancement of phospho-γH2AX foci formation” value (T98G cells) was “no enhancement”, the “enhancement of phospho-γH2AX foci formation” value (U251 cells) was “no enhancement” and the “increase of phospho-γH2AX foci formation compared to radiation alone (factor)” value (SKMG3 cells) was 1.2. The “CD8-EGFR phosphorylation (phospho-Y1068, phospho-Y845)” value (CD8-EGFR) was “resistant”, the “radiosensitization by NGI-1 (radiation clonogenic survival)” value (SKMG3-CD8-EGFR cells) was “prevented radiosensitization” and the induction of apoptosis (HCC827-GR cells) was “not sufficient to induce apoptosis”. The toxicity [2] was “no significant toxicity”.
